Laboratory results reported in patent publication US10294202B2, “Pyrrolidinones as herbicides” (FMC Corporation, priority 2013, dated 2019).

Experiments:
wheat (winter wheat) = test: Test C pre-/postemergence herbicide test; type: in vivo, Triticum aestivum
Summary of the method: (§1)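 Two application timings ran in parallel with identically formulated test chemicals (non-phytotoxic solvent, surfactant included): spray on seeded loam–sand soil, and spray on emerged plants 2 to 18 cm high. Evaluation at 13 to 15 days compared each species with controls, rated from 0 up to 100.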

johnsongrass = test: Test C pre-/postemergence herbicide test; type: in vivo, Sorghum halepense
Summary of the method: as §1

morningglory = test: Test C pre-/postemergence herbicide test; type: in vivo, Ipomoea coccinea
Summary of the method: as §1

waterhemp = test: Test C pre-/postemergence herbicide test; type: in vivo, Amaranthus rudis
Summary of the method: as §1

velvetleaf = test: Test C pre-/postemergence herbicide test; type: in vivo, Abutilon theophrasti
Summary of the method: as §1

chickweed = test: Test C postemergence herbicide test; type: in vivo, Stellaria media
Text: At the same time, plants selected from these crop and weed species and also barley (winter barley, Hordeum vulgare), […]), chickweed (common chickweed, Stellaria media), deadnettle (henbit deadnettle, Lamium amplexicaule), and canarygrass (littleseed canarygrass, Phalaris minor) were planted in pots containing Redi-Earth® planting medium (Scotts Company, 14111 Scottslawn Road, Marysville, Ohio 43041) comprising spaghnum peat moss, vermiculite, wetting agent and starter nutrients and treated with postemergence applications of test chemicals formulated in the same manner. Plants ranged in height from 2 to 18 cm (1- to 4-leaf stage) for postemergence treatments. Treated plants and controls were maintained in a greenhouse for 13 to 15 days, after which time all species were compared to controls and visually evaluated. Plant response ratings, summarized in Table C, are based on a scale of 0 to 100 where 0 is no effect and 100 is complete control. A dash (-) response means no test result.

[1] = Postemergence, 31 g ai/ha, scale 0 to 100 (0 no effect, 100 complete control)
[2] = Postemergence, 62 g ai/ha, scale 0 (no effect) to 100 (complete control)
[3] = Postemergence, 125 g ai/ha, scale 0 to 100 (0 no effect, 100 complete control)
[4] = Postemergence, 250 g ai/ha, scale 0 to 100 (0 no effect, 100 complete control)
[5] = Preemergence, 31 g ai/ha, scale 0 to 100, 0 is no effect and 100 is complete control
[6] = Preemergence, 62 g ai/ha, scale 0 to 100 (0 no effect, 100 complete control)
[7] = Preemergence, 125 g ai/ha, scale 0 to 100 (0 no effect, 100 complete control)
[8] = 31 g ai/ha, scale 0 to 100 (0 no effect, 100 complete control)
[9] = 62 g ai/ha, scale 0 (no effect) to 100 (complete control)
[10] = 125 g ai/ha, scale 0 to 100 (0 no effect, 100 complete control)
[11] = 250 g ai/ha, scale 0 to 100 (0 no effect, 100 complete control)

For O=C1NCC(c2cccc(C(F)(F)F)c2)C1C(=O)Nc1ccc(F)cc1F (racemic) [Compound 207], the “Plant response rating, Wheat” value (wheat (winter wheat); [1]) was 0, the “Plant response rating, Wheat” value (wheat (winter wheat); [2]) was 0 and the “Plant response rating, Wheat” value (wheat (winter wheat); [3]) was 0. The “Plant response rating, Wheat” value (wheat (winter wheat); [4]) was 0, the “Wheat plant response rating” value (wheat (winter wheat); [5]) was 0 and the “Wheat plant response rating” value (wheat (winter wheat); [6]) was 0. The “Plant response rating, Wheat” value (wheat (winter wheat); [7]) was 5, the “Plant response rating (scale of 0 to 100), Wheat” value (wheat (winter wheat); Preemergence, 250 g ai/ha) was 45 and the “Plant response rating, Johnsongrass” value (johnsongrass; [1]) was 0. For the same compound, the “Plant response rating, Johnsongrass” value (johnsongrass; [2]) was 0, the “Plant response rating, Johnsongrass” value (johnsongrass; [3]) was 0 and the “Plant response rating, Johnsongrass” value (johnsongrass; [4]) was 0. The “Johnsongrass plant response rating” value (johnsongrass; [5]) was 0, the “Johnsongrass plant response rating” value (johnsongrass; [6]) was 0 and the “Plant response rating, Johnsongrass” value (johnsongrass; [7]) was 30. The “Plant response rating (scale of 0 to 100), Johnsongrass” value (johnsongrass; Preemergence, 250 g ai/ha) was 60, the “Plant response rating, Morningglory” value (morningglory; [1]) was 5 and the “Plant response rating, Morningglory” value (morningglory; [2]) was 5. The “Plant response rating, Morningglory” value (morningglory; [3]) was 5, the “Plant response rating, Morningglory” value (morningglory; [4]) was 20 and the “Morningglory plant response rating” value (morningglory; [5]) was 0. For the same compound, the “Morningglory plant response rating” value (morningglory; [6]) was 0, the “Plant response rating, Morningglory” value (morningglory; [7]) was 0 and the “Plant response rating (scale of 0 to 100), Morningglory” value (morningglory; Preemergence, 250 g ai/ha) was 0. For the same compound, the “Plant response rating, Waterhemp” value (waterhemp; [1]) was 0, the “Plant response rating, Waterhemp” value (waterhemp; [2]) was 0 and the “Plant response rating, Waterhemp” value (waterhemp; [3]) was 0. For the same compound, the “Plant response rating, Waterhemp” value (waterhemp; [4]) was 10, the “Waterhemp plant response rating” value (waterhemp; [5]) was 0 and the “Waterhemp plant response rating” value (waterhemp; [6]) was 0. For the same compound, the “Plant response rating, Waterhemp” value (waterhemp; [7]) was 85, the “Plant response rating (scale of 0 to 100), Waterhemp” value (waterhemp; Preemergence, 250 g ai/ha) was 75 and the “Plant response rating, Velvetleaf” value (velvetleaf; [1]) was 0. The “Plant response rating, Velvetleaf” value (velvetleaf; [2]) was 0, the “Plant response rating, Velvetleaf” value (velvetleaf; [3]) was 0 and the “Plant response rating, Velvetleaf” value (velvetleaf; [4]) was 0. The “Velvetleaf plant response rating” value (velvetleaf; [5]) was 0, the “Velvetleaf plant response rating” value (velvetleaf; [6]) was 0 and the “Plant response rating, Velvetleaf” value (velvetleaf; [7]) was 0. For the same compound, the “Plant response rating (scale of 0 to 100), Velvetleaf” value (velvetleaf; Preemergence, 250 g ai/ha) was 0, the “Plant response rating, Chickweed” value (chickweed; [8]) was 30 and the “Plant response rating, Chickweed” value (chickweed; [9]) was 50. The “Plant response rating, Chickweed” value (chickweed; [10]) was 60 and the “Plant response rating, Chickweed” value (chickweed; [11]) was 90.

O=C1NCC(c2cccc(Cl)c2)C1C(=O)Nc1cccc(F)c1F (racemic) [Compound 275] was tested, and the “Plant response rating, Wheat” value (wheat (winter wheat); [1]) was 0, the “Plant response rating, Wheat” value (wheat (winter wheat); [2]) was 0 and the “Plant response rating, Wheat” value (wheat (winter wheat); [3]) was 0. For the same compound, the “Plant response rating, Wheat” value (wheat (winter wheat); [4]) was 0, the “Wheat plant response rating” value (wheat (winter wheat); [5]) was 5 and the “Wheat plant response rating” value (wheat (winter wheat); [6]) was 45. For the same compound, the “Plant response rating (scale of 0 to 100), Wheat” value (wheat (winter wheat); Preemergence, 250 g ai/ha) was 90, the “Plant response rating, Johnsongrass” value (johnsongrass; [1]) was 0 and the “Plant response rating, Johnsongrass” value (johnsongrass; [2]) was 0. The “Plant response rating, Johnsongrass” value (johnsongrass; [3]) was 0, the “Plant response rating, Johnsongrass” value (johnsongrass; [4]) was 25 and the “Johnsongrass plant response rating” value (johnsongrass; [5]) was 10. The “Johnsongrass plant response rating” value (johnsongrass; [6]) was 50, the “Plant response rating, Johnsongrass” value (johnsongrass; [7]) was 75 and the “Plant response rating (scale of 0 to 100), Johnsongrass” value (johnsongrass; Preemergence, 250 g ai/ha) was 85. For the same compound, the “Plant response rating, Morningglory” value (morningglory; [1]) was 10, the “Plant response rating, Morningglory” value (morningglory; [2]) was 10 and the “Plant response rating, Morningglory” value (morningglory; [3]) was 20. The “Plant response rating, Morningglory” value (morningglory; [4]) was 20, the “Morningglory plant response rating” value (morningglory; [5]) was 0 and the “Morningglory plant response rating” value (morningglory; [6]) was 0. For the same compound, the “Plant response rating, Morningglory” value (morningglory; [7]) was 0, the “Plant response rating (scale of 0 to 100), Morningglory” value (morningglory; Preemergence, 250 g ai/ha) was 50 and the “Plant response rating, Waterhemp” value (waterhemp; [1]) was 0. For the same compound, the “Plant response rating, Waterhemp” value (waterhemp; [2]) was 0, the “Plant response rating, Waterhemp” value (waterhemp; [3]) was 0 and the “Plant response rating, Waterhemp” value (waterhemp; [4]) was 20. The “Waterhemp plant response rating” value (waterhemp; [5]) was 0, the “Waterhemp plant response rating” value (waterhemp; [6]) was 0 and the “Plant response rating, Waterhemp” value (waterhemp; [7]) was 15. The “Plant response rating (scale of 0 to 100), Waterhemp” value (waterhemp; Preemergence, 250 g ai/ha) was 60, the “Plant response rating, Velvetleaf” value (velvetleaf; [1]) was 5 and the “Plant response rating, Velvetleaf” value (velvetleaf; [2]) was 10. The “Plant response rating, Velvetleaf” value (velvetleaf; [3]) was 10, the “Plant response rating, Velvetleaf” value (velvetleaf; [4]) was 50 and the “Velvetleaf plant response rating” value (velvetleaf; [5]) was 0. For the same compound, the “Velvetleaf plant response rating” value (velvetleaf; [6]) was 0, the “Plant response rating, Velvetleaf” value (velvetleaf; [7]) was 25 and the “Plant response rating (scale of 0 to 100), Velvetleaf” value (velvetleaf; Preemergence, 250 g ai/ha) was 30. For the same compound, the “Plant response rating, Chickweed” value (chickweed; [8]) was 50, the “Plant response rating, Chickweed” value (chickweed; [9]) was 60 and the “Plant response rating, Chickweed” value (chickweed; [10]) was 85. For the same compound, the “Plant response rating, Chickweed” value (chickweed; [11]) was 85.
